Experimental findings from ChEMBL document CHEMBL1201862, “PubChem BioAssay data set” (2004) are described below.

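Test compounds were applied to cells in 96-well plates for 48 hours at 5 doses. GI50 marks 50% less growth.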 The source made the active and inactive calls. Rule as the data show it: active = GI50 up to about 1.1 µM and inactive = higher.

Assay in all cases: NCI tumour cell line growth inhibition, 48 h
Assay [1] has as its system CAKI-1.
Assay [2] relates to HL-60.
Assay [3] deals with HOP-62.
In assay [4] the test system is LOX IMVI.
Assay [5] has as its system UACC-62.
Assay [6] concerns HCT-15.
Assay [7] relates to MDA-N.
In assay [8] the test system is K562.
Assay [9] concerns DU-145.
Assay [10] has as its system EKVX.
Assay [11] has as its system Malme-3M.
The test system of assay [12] is SN12C.
In assay [13] the test system is RPMI-8226.
Assay [14] deals with HCT-116.
The subject of assay [15] is NCI-H460.
Assay [16] has as its system SK-MEL-5.
In assay [17] the test system is SF-295.
Assay [18] relates to HT-29.
Assay [19] has as its system SF-268.
Assay [20] has as its system Hs-578T.

Regarding `CCCCC(=C=C(C)CO)C1CCCN1C(=O)OC(C)(C)C` (stereo not given), the GI50 in [1] is 21.8 µM (inactive); in assay [2] it was 13.4 µM (inactive); in [3], 20 µM (inactive); in [4], 16.8 µM (inactive); in assay [5] it was 13.6 µM (inactive); in assay [6], 17.9 µM. Moreover, the GI50 in [7] was 17.6 µM (inactive); in assay [8], 17.9 µM (inactive); in [9] it was 18.1 µM (inactive); in [10] it was 19.7 µM (inactive); in assay [11], 15 µM (inactive); in [12], 17.3 µM (inactive). For the same compound, the GI50 in assay [13] is 13.9 µM (inactive); in assay [14], 15.6 µM (inactive); in [15] it was 16.1 µM (inactive); in assay [16], 16.1 µM (inactive); in assay [17], 16.3 µM (inactive); in assay [18], 17.5 µM (inactive). Further, the GI50 in assay [19] was 17.5 µM (inactive); in assay [20], 13.8 µM (inactive).
On to `Cc1ccc(-n2cc(-c3ccc(Cl)cc3)c3c(N/N=C4\SCC(=O)N4C)ncnc32)cc1`, for which the GI50 is 4.23 µM (inactive) in [1]; > 100 µM (inactive) in assay [2]; 9.14 µM (inactive) in assay [3]; 5.64 µM (inactive) in assay [4]; 3.44 µM (inactive) in assay [5]; 59.3 µM in assay [6]. Also, the GI50 was 5.19 µM (inactive) in [7]; 5 µM (inactive) in [8]; > 100 µM (inactive) in [9]; 18.3 µM (inactive) in assay [10]; 3.31 µM (inactive) in assay [11]; 5.6 µM (inactive) in assay [12]. Also, the GI50 in [13] is 12.9 µM (inactive); in assay [14], 4.59 µM (inactive); in assay [15], 4.31 µM (inactive); in assay [16], 3.81 µM (inactive); in assay [17], 2.67 µM (inactive); in [18], 12.3 µM (inactive). The values for the GI50 in [19] and in assay [20] were 7.05 µM (inactive) and 3.59 µM (inactive), respectively.
For `COC(=O)C1=C(O)C(C(=O)OC)[C@]2(O)[C@H](C(=O)OC)[C@H]1C[C@@H](c1ccc(Cl)cc1Cl)[C@H]2C(=O)OC` (stereo not given in full), the GI50 was 9.68 µM (inactive) in [1]; 2.65 µM (inactive) in assay [2]; 5.5 µM (inactive) in assay [3]; 5.92 µM (inactive) in assay [4]; 9.46 µM (inactive) in assay [5]; 4.91 µM in assay [6]. The GI50 is 2.74 µM (inactive) in [7]; 3.47 µM (inactive) in [8]; 6.68 µM (inactive) in assay [9]; 19.1 µM (inactive) in assay [10]; 6.95 µM (inactive) in assay [11]; 3.28 µM (inactive) in assay [12]. Further, the GI50 in [13] is 1.75 µM (inactive); in assay [14] it was 6.3 µM (inactive); in [15] it was 5.64 µM (inactive); in assay [16], 4.91 µM (inactive); in [17], 7.46 µM (inactive); in [18] it was 13.2 µM (inactive). Moreover, the GI50 in assay [19] is 7.62 µM (inactive); in assay [20], 15.5 µM (inactive).
